# Test results from PubChem BioAssay AID1963426 (Molecular Pharmacology Branch, DTP, NCI, 2024).
# System: 186277-243-T-J2-PDC complex spheroid growth, % test/control
# Assay: Anticancer human tumor 186277-243-T-J2-PDC patient-derived colon adenocarcinoma cell line growth inhibition [Asc]
# Details: for IC50: curve of first compound; for viability, T/C: stronger effect = lower value
# How it was run: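 Complex spheroids combining tumor cells with HUVEC endothelial cells and human MSCs, at 37 degrees C, 5% CO2; agents tested alone or combined, half-log dilutions from at or near clinical Cmax, or 10 microM if Cmax unknown.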
# [1] = second compound 0.03 µM, first compound 0.0316 µM
# [2] = second compound 0.03 µM, first compound 0.1 µM
# [3] = second compound 0.03 µM, first compound 0.316 µM
# [4] = second compound 0.03 µM, first compound 1 µM
# [5] = second compound 0.03 µM, first compound 3.16 µM
# [6] = second compound 0.03 µM, first compound 10 µM
# [7] = second compound 0.0949 µM, first compound 0.0316 µM
# [8] = second compound 0.0949 µM, first compound 0.1 µM
# [9] = second compound 0.0949 µM, first compound 0.316 µM
# [10] = second compound 0.0949 µM, first compound 1 µM
# [11] = second compound 0.0949 µM, first compound 3.16 µM
# [12] = second compound 0.0949 µM, first compound 10 µM
# [13] = second compound 0.3 µM, first compound 0.0316 µM
# [14] = second compound 0.3 µM, first compound 0.1 µM
# [15] = second compound 0.3 µM, first compound 0.316 µM
# [16] = second compound 0.3 µM, first compound 1 µM
# [17] = second compound 0.3 µM, first compound 3.16 µM
# [18] = second compound 0.3 µM, first compound 10 µM
# [19] = second compound 0.949 µM, first compound 0.0316 µM
# [20] = second compound 0.949 µM, first compound 0.1 µM
# [21] = second compound 0.949 µM, first compound 0.316 µM
# [22] = second compound 0.949 µM, first compound 1 µM
# [23] = second compound 0.949 µM, first compound 3.16 µM
# [24] = second compound 0.949 µM, first compound 10 µM
# [25] = second compound 3 µM, first compound 0.0316 µM
# [26] = second compound 3 µM, first compound 0.1 µM
# [27] = second compound 3 µM, first compound 0.316 µM
# [28] = second compound 3 µM, first compound 1 µM
# [29] = second compound 3 µM, first compound 3.16 µM
# [30] = second compound 3 µM, first compound 10 µM
# 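Further: spheroids exposed to agents for 7 days.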
# 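Wherever viability, T/C is given: 100% = DMSO vehicle control wells.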
SMILES,IC50 (second compound 0.03 µM) [µM],IC50 (second compound 0.0949 µM) [µM],IC50 (second compound 0.3 µM) [µM],IC50 (second compound 0.949 µM) [µM],IC50 (second compound 3 µM) [µM],"viability, T/C [1] [%]","viability, T/C [2] [%]","viability, T/C [3] [%]","viability, T/C [4] [%]","viability, T/C [7] [%]","viability, T/C [8] [%]","viability, T/C [9] [%]","viability, T/C [10] [%]","viability, T/C [13] [%]","viability, T/C [14] [%]","viability, T/C [15] [%]","viability, T/C [16] [%]","viability, T/C [19] [%]","viability, T/C [20] [%]","viability, T/C [21] [%]",other results
C=C(F)C(=O)N1CCN(c2nc(OCC3CCCN3C)nc3c2CCN(c2cccc4cccc(Cl)c24)C3)CC1CC#N (stereo not given) + CCN1C(C(=O)NC23CCC(C(=O)O)(CC2)CC3)C(c2cccc(Cl)c2F)C2(C(=O)Nc3cc(Cl)ccc32)C12CCCCC2,4.75,4.63,4,1.61,< 0.0316,123,107,109,99.8,92.7,92.5,103,88.6,76.3,82.5,86.1,73.2,58.2,57.5,61.4,"viability, T/C [5]: 79.5%; viability, T/C [6]: 0.44%; viability, T/C [11]: 75.2%; viability, T/C [12]: 0.22%; viability, T/C [17]: 63.7%; viability, T/C [18]: 0.17%; viability, T/C [22]: 64%; viability, T/C [23]: 35.6%; viability, T/C [24]: 0.22%; viability, T/C [25]: 38.4%; viability, T/C [26]: 37.3%; viability, T/C [27]: 38.8%; viability, T/C [28]: 37%; viability, T/C [29]: 23.6%; viability, T/C [30]: 0.69%"
C=CC(=O)N1CCN(c2nc(=O)n(-c3c(C)ccnc3C(C)C)c3nc(-c4c(O)cccc4F)c(F)cc23)C(C)C1 (stereo not given) + CCN1C(C(=O)NC23CCC(C(=O)O)(CC2)CC3)C(c2cccc(Cl)c2F)C2(C(=O)Nc3cc(Cl)ccc32)C12CCCCC2,> 10,> 10,> 10,3.74,< 0.0316,124,119,119,127,119,92.9,112,94.5,74.9,82.2,81.2,79.4,62.5,59.3,58.1,"viability, T/C [5]: 122%; viability, T/C [6]: 125%; viability, T/C [11]: 113%; viability, T/C [12]: 103%; viability, T/C [17]: 74.7%; viability, T/C [18]: 69.1%; viability, T/C [22]: 57.3%; viability, T/C [23]: 51.4%; viability, T/C [24]: 42%; viability, T/C [25]: 33.2%; viability, T/C [26]: 36%; viability, T/C [27]: 35.9%; viability, T/C [28]: 36.5%; viability, T/C [29]: 41%; viability, T/C [30]: 32.7%"
COc1c(OCCCN2CCOCC2)ccc2c3n(c(=NC(=O)c4cnc(N)nc4)nc12)CCN3 + CCN1C(C(=O)NC23CCC(C(=O)O)(CC2)CC3)C(c2cccc(Cl)c2F)C2(C(=O)Nc3cc(Cl)ccc32)C12CCCCC2,0.0258,0.0189,0.0129,< 0.00316,< 0.00316,46.7,18.1,9.99,6.65,38.8,9.15,4.16,2.21,21.4,2.26,1.06,0.54,9.96,0.92,0.3,"viability, T/C (second compound 0.03 µM, first compound 0.00316 µM): 101%; viability, T/C (second compound 0.03 µM, first compound 0.01 µM): 75.2%; viability, T/C (second compound 0.0949 µM, first compound 0.00316 µM): 67.3%; viability, T/C (second compound 0.0949 µM, first compound 0.01 µM): 64%; viability, T/C (second compound 0.3 µM, first compound 0.00316 µM): 58.1%; viability, T/C (second compound 0.3 µM, first compound 0.01 µM): 58.4%; viability, T/C (second compound 0.949 µM, first compound 0.00316 µM): 49.5%; viability, T/C (second compound 0.949 µM, first compound 0.01 µM): 40.1%; viability, T/C [22]: 0.28%; viability, T/C (second compound 3 µM, first compound 0.00316 µM): 30.3%; viability, T/C (second compound 3 µM, first compound 0.01 µM): 24.8%; viability, T/C [25]: 5.08%; viability, T/C [26]: 0.52%; viability, T/C [27]: 0.33%; viability, T/C [28]: 0.31%"
